Measurements published in publication PMC4490784, “Compensatory induction of MYC expression by sustained CDK9 inhibition via a BRD4-dependent mechanism” (eLife, 2015).

Experiments:
Assay in all cases: KINOMEscan binding assay
EIF2AK1 = molecular target: T1, EIF2AK1 (Homo sapiens, UniProt Q9BQI3); settings: 1 µM i-CDK9; read-out: % Retention on Solid Support
T1 construct: purchased DiscoveRx KINOMEscan
How it was run: (§1)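 Readout reflects displacement of an active site-directed ligand, scored across more than 400 kinases with i-CDK9 at 1 µM and at 10 µM.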

CAMKK1 = molecular target: T2, CAMKK1 (Homo sapiens, UniProt Q8N5S9); settings: read-out: % Retention on Solid Support
T2 construct: purchased DiscoveRx KINOMEscan
T2 sequence (Q8N5S9 whole entry): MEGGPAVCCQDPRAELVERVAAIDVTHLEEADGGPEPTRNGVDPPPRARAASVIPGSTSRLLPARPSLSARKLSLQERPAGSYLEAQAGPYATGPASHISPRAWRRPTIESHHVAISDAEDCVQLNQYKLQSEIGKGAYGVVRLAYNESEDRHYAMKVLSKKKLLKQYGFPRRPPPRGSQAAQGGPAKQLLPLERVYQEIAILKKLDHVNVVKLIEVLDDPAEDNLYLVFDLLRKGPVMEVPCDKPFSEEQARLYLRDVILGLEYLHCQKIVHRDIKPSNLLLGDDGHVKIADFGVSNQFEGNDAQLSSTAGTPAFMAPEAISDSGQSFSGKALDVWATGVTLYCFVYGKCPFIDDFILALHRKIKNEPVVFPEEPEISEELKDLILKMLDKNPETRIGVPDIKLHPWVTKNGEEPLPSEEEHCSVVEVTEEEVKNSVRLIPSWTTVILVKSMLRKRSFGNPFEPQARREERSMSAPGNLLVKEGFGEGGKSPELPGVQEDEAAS
How it was run: as §1

WEE2 = molecular target: T3, WEE2 (Homo sapiens, UniProt P0C1S8); settings: read-out: % Retention on Solid Support
T3 construct: purchased DiscoveRx KINOMEscan
How it was run: as §1

SgK110 = molecular target: T4, SgK110 (Homo sapiens, UniProt P0C264); settings: read-out: % Retention on Solid Support
T4 construct: purchased DiscoveRx KINOMEscan
How it was run: as §1

YSK1 = molecular target: T5, YSK1 (Homo sapiens, UniProt O00506); settings: read-out: % Retention on Solid Support
T5 construct: purchased DiscoveRx KINOMEscan
How it was run: as §1

ULK3 = molecular target: T6, ULK3 (Homo sapiens, UniProt Q6PHR2)
T6 construct: purchased DiscoveRx KINOMEscan
T6 sequence (Q6PHR2 whole entry): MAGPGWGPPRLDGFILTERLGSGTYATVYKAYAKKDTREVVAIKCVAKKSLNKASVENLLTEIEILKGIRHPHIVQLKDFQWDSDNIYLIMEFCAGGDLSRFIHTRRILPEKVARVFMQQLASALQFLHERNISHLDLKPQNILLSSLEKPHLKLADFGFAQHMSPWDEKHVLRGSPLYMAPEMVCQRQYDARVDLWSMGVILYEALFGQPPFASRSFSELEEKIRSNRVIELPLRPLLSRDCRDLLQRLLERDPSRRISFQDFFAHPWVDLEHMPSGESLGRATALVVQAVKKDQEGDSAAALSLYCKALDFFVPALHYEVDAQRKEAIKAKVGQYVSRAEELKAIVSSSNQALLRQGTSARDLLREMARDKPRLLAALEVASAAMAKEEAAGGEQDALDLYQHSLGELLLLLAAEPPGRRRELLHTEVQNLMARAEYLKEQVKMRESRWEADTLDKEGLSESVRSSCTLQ
How it was run: as §1

TSSK1B = molecular target: T7, TSSK1B (Homo sapiens, UniProt Q9BXA7); settings: read-out: % Retention on Solid Support
T7 construct: purchased DiscoveRx KINOMEscan
How it was run: as §1

MRCKB = molecular target: T8, MRCKB (Homo sapiens, UniProt Q9Y5S2); settings: read-out: % Retention on Solid Support
T8 construct: purchased DiscoveRx KINOMEscan
T8 sequence (Q9Y5S2 whole entry): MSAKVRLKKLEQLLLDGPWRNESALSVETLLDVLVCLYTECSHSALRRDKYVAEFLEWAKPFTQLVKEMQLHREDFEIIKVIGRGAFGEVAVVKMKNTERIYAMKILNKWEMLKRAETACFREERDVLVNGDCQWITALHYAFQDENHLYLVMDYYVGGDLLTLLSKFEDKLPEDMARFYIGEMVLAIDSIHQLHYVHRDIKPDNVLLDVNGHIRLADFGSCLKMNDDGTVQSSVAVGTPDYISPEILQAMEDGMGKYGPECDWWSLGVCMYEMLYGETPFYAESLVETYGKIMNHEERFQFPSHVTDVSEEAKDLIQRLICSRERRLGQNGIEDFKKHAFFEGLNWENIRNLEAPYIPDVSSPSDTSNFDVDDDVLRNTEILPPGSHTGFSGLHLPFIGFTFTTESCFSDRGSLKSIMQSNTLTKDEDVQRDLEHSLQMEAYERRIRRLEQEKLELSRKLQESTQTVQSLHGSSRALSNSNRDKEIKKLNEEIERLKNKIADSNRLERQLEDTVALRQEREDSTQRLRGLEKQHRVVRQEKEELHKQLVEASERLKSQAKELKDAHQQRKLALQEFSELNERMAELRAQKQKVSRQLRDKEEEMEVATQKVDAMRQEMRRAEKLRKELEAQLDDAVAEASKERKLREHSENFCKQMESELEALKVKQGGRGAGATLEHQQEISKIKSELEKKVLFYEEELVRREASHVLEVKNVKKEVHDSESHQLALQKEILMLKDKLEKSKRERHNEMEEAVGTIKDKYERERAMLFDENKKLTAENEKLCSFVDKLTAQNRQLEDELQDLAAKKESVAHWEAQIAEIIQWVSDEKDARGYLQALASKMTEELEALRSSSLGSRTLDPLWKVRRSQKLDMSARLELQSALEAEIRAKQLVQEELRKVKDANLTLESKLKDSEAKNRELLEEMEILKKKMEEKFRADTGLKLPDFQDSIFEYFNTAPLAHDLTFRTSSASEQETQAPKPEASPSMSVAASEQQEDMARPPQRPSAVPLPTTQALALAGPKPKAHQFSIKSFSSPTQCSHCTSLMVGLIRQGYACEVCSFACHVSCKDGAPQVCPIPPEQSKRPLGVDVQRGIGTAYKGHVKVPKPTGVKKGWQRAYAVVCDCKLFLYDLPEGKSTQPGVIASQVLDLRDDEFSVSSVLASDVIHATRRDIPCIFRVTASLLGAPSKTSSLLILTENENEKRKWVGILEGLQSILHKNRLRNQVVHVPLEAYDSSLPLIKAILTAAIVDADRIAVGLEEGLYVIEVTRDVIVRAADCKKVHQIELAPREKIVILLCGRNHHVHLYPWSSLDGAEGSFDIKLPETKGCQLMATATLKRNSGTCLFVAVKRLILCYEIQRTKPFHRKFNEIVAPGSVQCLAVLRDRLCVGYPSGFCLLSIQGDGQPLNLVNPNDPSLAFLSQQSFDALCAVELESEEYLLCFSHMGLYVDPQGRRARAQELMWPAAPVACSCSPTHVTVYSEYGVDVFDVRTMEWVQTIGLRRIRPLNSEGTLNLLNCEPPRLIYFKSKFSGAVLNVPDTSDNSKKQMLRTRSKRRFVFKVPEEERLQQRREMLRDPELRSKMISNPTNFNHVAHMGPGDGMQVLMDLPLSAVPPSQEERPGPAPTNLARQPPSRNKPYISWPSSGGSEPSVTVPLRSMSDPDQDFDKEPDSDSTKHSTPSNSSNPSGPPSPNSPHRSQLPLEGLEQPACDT
How it was run: as §1

[1] = molecular target: T9, RSK4(Kin.Dom.2-C-terminal) (Homo sapiens, UniProt Q9UK32)
T9 construct: RSK4(Kin.Dom.2-C-terminal); purchased DiscoveRx KINOMEscan
T9 sequence (Q9UK32 401-745 limits assumed): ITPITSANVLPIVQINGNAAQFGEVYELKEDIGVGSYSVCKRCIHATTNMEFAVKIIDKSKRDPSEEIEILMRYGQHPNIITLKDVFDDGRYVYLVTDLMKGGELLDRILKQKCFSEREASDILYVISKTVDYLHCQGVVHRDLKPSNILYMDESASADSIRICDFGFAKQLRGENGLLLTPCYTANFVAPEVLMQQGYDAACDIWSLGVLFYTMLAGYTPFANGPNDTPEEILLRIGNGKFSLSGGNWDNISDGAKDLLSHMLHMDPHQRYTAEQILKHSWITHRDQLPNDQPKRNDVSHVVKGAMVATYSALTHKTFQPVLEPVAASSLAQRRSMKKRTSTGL
How it was run: as §1

CLK4 = molecular target: T10, CLK4 (Homo sapiens, UniProt Q9HAZ1); settings: read-out: % Retention on Solid Support
T10 construct: purchased DiscoveRx KINOMEscan
T10 sequence (Q9HAZ1 whole entry): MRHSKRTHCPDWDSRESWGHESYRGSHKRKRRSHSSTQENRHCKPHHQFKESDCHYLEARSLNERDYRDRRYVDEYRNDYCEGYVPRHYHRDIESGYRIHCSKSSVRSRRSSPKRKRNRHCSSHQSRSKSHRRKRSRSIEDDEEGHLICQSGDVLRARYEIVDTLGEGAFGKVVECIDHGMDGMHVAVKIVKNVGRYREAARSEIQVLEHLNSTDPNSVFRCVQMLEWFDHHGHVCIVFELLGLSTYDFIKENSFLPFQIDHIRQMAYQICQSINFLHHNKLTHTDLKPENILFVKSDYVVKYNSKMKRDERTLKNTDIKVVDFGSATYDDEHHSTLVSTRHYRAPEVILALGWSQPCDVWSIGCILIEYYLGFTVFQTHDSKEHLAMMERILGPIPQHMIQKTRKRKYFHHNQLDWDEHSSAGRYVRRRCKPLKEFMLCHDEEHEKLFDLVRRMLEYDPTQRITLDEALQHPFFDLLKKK
How it was run: as §1

[2] = molecular target: T11, JAK3(JH1domain-catalytic) (Homo sapiens, UniProt P52333); settings: read-out: % Retention on Solid Support
T11 construct: JAK3(JH1domain-catalytic); purchased DiscoveRx KINOMEscan
How it was run: as §1

DAPK3 = molecular target: T12, DAPK3 (Homo sapiens, UniProt O43293); settings: read-out: % Retention on Solid Support
T12 construct: purchased DiscoveRx KINOMEscan
How it was run: as §1

INSR = molecular target: T13, INSR (Homo sapiens, UniProt P06213); settings: read-out: % Retention on Solid Support
T13 construct: purchased DiscoveRx KINOMEscan
How it was run: as §1

ERK1 = molecular target: T14, ERK1 (Homo sapiens, UniProt P27361); settings: read-out: % Retention on Solid Support
T14 construct: purchased DiscoveRx KINOMEscan
How it was run: as §1

[3] = molecular target: T15, ABL1(T315I)-phosphorylated (Homo sapiens, UniProt P00519, T315I); settings: 1 µM i-CDK9; read-out: % Retention on Solid Support
T15 construct: purchased DiscoveRx KINOMEscan
How it was run: as §1

PCTK1 = molecular target: T16, PCTK1 (Homo sapiens, UniProt Q00536); settings: read-out: % Retention on Solid Support
T16 construct: purchased DiscoveRx KINOMEscan
How it was run: as §1

PAK6 = molecular target: T17, PAK6 (Homo sapiens, UniProt Q9NQU5); settings: read-out: % Retention on Solid Support
T17 construct: purchased DiscoveRx KINOMEscan
How it was run: as §1

CSNK1D = molecular target: T18, CSNK1D (Homo sapiens, UniProt P48730); settings: read-out: % Retention on Solid Support
T18 construct: purchased DiscoveRx KINOMEscan
How it was run: as §1

PKN2 = molecular target: T19, PKN2 (Homo sapiens, UniProt Q16513); settings: read-out: % Retention on Solid Support
T19 construct: purchased DiscoveRx KINOMEscan
How it was run: as §1

MEK1 = molecular target: T20, MEK1 (Homo sapiens, UniProt Q02750); settings: read-out: % Retention on Solid Support
T20 construct: purchased DiscoveRx KINOMEscan
How it was run: as §1

KIT(V559D,V654A) = molecular target: T21, KIT(V559D,V654A) (Homo sapiens, UniProt P10721, V559D/V654A); settings: read-out: % Retention on Solid Support
T21 construct: purchased DiscoveRx KINOMEscan
How it was run: as §1

PAK4 = molecular target: T22, PAK4 (Homo sapiens, UniProt O96013); settings: read-out: % Retention on Solid Support
T22 construct: purchased DiscoveRx KINOMEscan
T22 sequence (O96013 whole entry): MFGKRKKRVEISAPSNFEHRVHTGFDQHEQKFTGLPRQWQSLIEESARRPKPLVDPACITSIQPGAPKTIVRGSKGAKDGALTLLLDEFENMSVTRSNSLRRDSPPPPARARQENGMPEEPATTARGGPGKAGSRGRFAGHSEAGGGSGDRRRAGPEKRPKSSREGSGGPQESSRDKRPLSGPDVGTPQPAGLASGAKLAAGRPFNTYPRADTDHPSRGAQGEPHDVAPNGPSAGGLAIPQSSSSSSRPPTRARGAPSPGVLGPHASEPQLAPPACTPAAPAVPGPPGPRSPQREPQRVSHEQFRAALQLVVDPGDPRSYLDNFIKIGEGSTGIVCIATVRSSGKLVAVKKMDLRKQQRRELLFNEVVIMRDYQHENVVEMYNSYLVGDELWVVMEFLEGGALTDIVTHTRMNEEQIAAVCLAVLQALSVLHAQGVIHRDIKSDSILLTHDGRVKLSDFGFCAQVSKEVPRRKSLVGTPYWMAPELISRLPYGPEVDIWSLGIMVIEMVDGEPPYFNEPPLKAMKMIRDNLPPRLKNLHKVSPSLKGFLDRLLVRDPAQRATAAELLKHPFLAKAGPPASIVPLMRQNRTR
How it was run: as §1

TXK = molecular target: T23, TXK (Homo sapiens, UniProt P42681); settings: read-out: % Retention on Solid Support
T23 construct: purchased DiscoveRx KINOMEscan
T23 sequence (P42681 whole entry): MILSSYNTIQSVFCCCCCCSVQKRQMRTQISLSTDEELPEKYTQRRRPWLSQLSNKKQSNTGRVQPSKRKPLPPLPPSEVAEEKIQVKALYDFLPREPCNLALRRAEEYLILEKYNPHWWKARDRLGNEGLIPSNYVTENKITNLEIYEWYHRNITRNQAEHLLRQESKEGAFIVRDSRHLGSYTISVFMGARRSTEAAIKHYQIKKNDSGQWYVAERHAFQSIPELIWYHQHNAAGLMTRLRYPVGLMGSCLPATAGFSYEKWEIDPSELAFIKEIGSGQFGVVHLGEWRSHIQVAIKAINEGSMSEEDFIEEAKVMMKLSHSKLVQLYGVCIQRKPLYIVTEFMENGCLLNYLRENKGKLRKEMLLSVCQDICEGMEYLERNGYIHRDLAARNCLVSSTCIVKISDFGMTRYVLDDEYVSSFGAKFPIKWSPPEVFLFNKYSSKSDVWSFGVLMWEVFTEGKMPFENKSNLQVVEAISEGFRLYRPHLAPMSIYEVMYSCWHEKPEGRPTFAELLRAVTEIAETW
How it was run: as §1

PRKR = molecular target: T24, PRKR (Homo sapiens, UniProt P19525)
T24 construct: purchased DiscoveRx KINOMEscan
How it was run: as §1

LOK = molecular target: T25, LOK (Homo sapiens, UniProt O94804)
T25 construct: purchased DiscoveRx KINOMEscan
How it was run: as §1

CDK3 = molecular target: T26, CDK3 (Homo sapiens, UniProt Q00526)
T26 construct: purchased DiscoveRx KINOMEscan
How it was run: as §1

MYLK2 = molecular target: T27, MYLK2 (Homo sapiens, UniProt Q9H1R3); settings: read-out: % Retention on Solid Support
T27 construct: purchased DiscoveRx KINOMEscan
How it was run: as §1

AXL = molecular target: T28, AXL (Homo sapiens, UniProt P30530); settings: read-out: % Retention on Solid Support
T28 construct: purchased DiscoveRx KINOMEscan
How it was run: as §1

MAPKAPK2 = molecular target: T29, MAPKAPK2 (Homo sapiens, UniProt P49137); settings: read-out: % Retention on Solid Support
T29 construct: purchased DiscoveRx KINOMEscan
T29 sequence (P49137 whole entry): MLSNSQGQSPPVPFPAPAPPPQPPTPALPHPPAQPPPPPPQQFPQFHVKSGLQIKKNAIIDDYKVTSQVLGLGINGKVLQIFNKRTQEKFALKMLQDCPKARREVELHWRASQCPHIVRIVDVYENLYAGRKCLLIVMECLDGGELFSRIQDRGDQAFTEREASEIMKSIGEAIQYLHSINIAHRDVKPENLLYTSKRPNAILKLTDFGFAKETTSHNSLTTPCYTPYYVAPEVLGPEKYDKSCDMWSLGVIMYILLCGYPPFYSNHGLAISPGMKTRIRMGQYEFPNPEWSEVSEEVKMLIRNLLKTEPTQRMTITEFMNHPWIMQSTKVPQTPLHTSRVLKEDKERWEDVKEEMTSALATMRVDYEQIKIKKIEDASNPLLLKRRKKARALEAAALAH
How it was run: as §1

N[C@H]1CC[C@H](Nc2cc(-c3cccc(NCc4cccc(F)c4)n3)c(Cl)cn2)CC1 [i-CDK9, N2′-(trans-4-aminocyclohexyl)-5′-chloro-N6-(3-fluorobenzyl)-2,4′-bipyridine-2′,6-diamine]
remaining binding at 1 µM (EIF2AK1): 85%
remaining binding at 1 µM (CAMKK1; 1 µM i-CDK9): 100%
remaining binding at 10 µM (CAMKK1; 10 µM i-CDK9): 100%
remaining binding at 1 µM (WEE2; 1 µM i-CDK9): 100%
remaining binding at 10 µM (WEE2; 10 µM i-CDK9): 100%
remaining binding at 1 µM (SgK110; 1 µM i-CDK9): 72%
remaining binding at 10 µM (SgK110; 10 µM i-CDK9): 100%
remaining binding at 1 µM (YSK1; 1 µM i-CDK9): 98%
remaining binding at 10 µM (YSK1; 10 µM i-CDK9): 96%
% Retention on Solid Support (ULK3; 1 µM i-CDK9): 94%
% Retention on Solid Support (ULK3; 10 µM i-CDK9): 88%
remaining binding at 1 µM (TSSK1B; 1 µM i-CDK9): 99%
remaining binding at 10 µM (TSSK1B; 10 µM i-CDK9): 68%
remaining binding at 1 µM (MRCKB; 1 µM i-CDK9): 95%
remaining binding at 10 µM (MRCKB; 10 µM i-CDK9): 100%
% Retention on Solid Support ([1]; 1 µM i-CDK9): 53%
% Retention on Solid Support ([1]; 10 µM i-CDK9): 51%
remaining binding at 1 µM (CLK4; 1 µM i-CDK9): 18%
remaining binding at 10 µM (CLK4; 10 µM i-CDK9): 4.2%
remaining binding at 1 µM ([2]; 1 µM i-CDK9): 100%
remaining binding at 10 µM ([2]; 10 µM i-CDK9): 100%
remaining binding at 1 µM (DAPK3; 1 µM i-CDK9): 90%
remaining binding at 10 µM (DAPK3; 10 µM i-CDK9): 70%
remaining binding at 1 µM (INSR; 1 µM i-CDK9): 100%
remaining binding at 10 µM (INSR; 10 µM i-CDK9): 81%
remaining binding at 1 µM (ERK1; 1 µM i-CDK9): 100%
remaining binding at 10 µM (ERK1; 10 µM i-CDK9): 93%
remaining binding at 1 µM [3]: 100%
remaining binding at 1 µM (PCTK1; 1 µM i-CDK9): 19%
remaining binding at 10 µM (PCTK1; 10 µM i-CDK9): 0.85%
remaining binding at 1 µM (PAK6; 1 µM i-CDK9): 100%
remaining binding at 10 µM (PAK6; 10 µM i-CDK9): 100%
remaining binding at 1 µM (CSNK1D; 1 µM i-CDK9): 47%
remaining binding at 10 µM (CSNK1D; 10 µM i-CDK9): 33%
remaining binding at 1 µM (PKN2; 1 µM i-CDK9): 52%
remaining binding at 10 µM (PKN2; 10 µM i-CDK9): 93%
remaining binding at 1 µM (MEK1; 1 µM i-CDK9): 100%
remaining binding at 10 µM (MEK1; 10 µM i-CDK9): 100%
remaining binding at 1 µM (KIT(V559D,V654A); 1 µM i-CDK9): 100%
remaining binding at 10 µM (KIT(V559D,V654A); 10 µM i-CDK9): 75%
remaining binding at 1 µM (PAK4; 1 µM i-CDK9): 100%
remaining binding at 10 µM (PAK4; 10 µM i-CDK9): 100%
remaining binding at 1 µM (TXK; 1 µM i-CDK9): 100%
remaining binding at 10 µM (TXK; 10 µM i-CDK9): 100%
% Retention on Solid Support (PRKR; 1 µM i-CDK9): 84%
% Retention on Solid Support (PRKR; 10 µM i-CDK9): 100%
% Retention on Solid Support (LOK; 1 µM i-CDK9): 89%
% Retention on Solid Support (LOK; 10 µM i-CDK9): 100%
% Retention on Solid Support (CDK3; 1 µM i-CDK9): 57%
% Retention on Solid Support (CDK3; 10 µM i-CDK9): 16%
remaining binding at 1 µM (MYLK2; 1 µM i-CDK9): 100%
remaining binding at 10 µM (MYLK2; 10 µM i-CDK9): 88%
remaining binding at 1 µM (AXL; 1 µM i-CDK9): 89%
remaining binding at 10 µM (AXL; 10 µM i-CDK9): 80%
remaining binding at 1 µM (MAPKAPK2; 1 µM i-CDK9): 100%
remaining binding at 10 µM (MAPKAPK2; 10 µM i-CDK9): 100%
